What was measured:
[1] = Body weight loss in C57 lean mice after a single s.c. dose; assay type: in vivo, C57BL/6 mice; details: 30 nmol/kg s.c. once
Experimental: Method: 10 week old male C57BL/6 mice were injected subcutaneously with protein once on Day1. Body weight was measured daily and five animals were used for each treatment group. Body weight was monitored for each individual animal. % BW loss=100*(BW on Day n-BW on Day 1)/(BW on Day 1). […] The area under the curve for body weight loss (%) from 0 until 8 days (AUC ΔBW 0-8d) was calculated.

[2] = tested on: db/db mice; assay: Non-fasting glucose in db/db mice after a single s.c. dose; assay type: in vivo
Experimental: Method: 10 weeks old male db/db mice were injected subcutaneously with GLP-1 polypeptide conjugate once. […] Delta blood glucose is glucose subtracted by baseline level. […] The area under the curve for delta blood glucose from 0 until 192 hours (AUCΔ8G 0-192 h) was calculated.

[3] = target: human serum albumin (Homo sapiens, UniProt P02768); assay: Human serum albumin binding by surface plasmon resonance (Biacore 8K); details: human serum albumin bound to CM5 chip
Chain of human serum albumin (P02768 25-609): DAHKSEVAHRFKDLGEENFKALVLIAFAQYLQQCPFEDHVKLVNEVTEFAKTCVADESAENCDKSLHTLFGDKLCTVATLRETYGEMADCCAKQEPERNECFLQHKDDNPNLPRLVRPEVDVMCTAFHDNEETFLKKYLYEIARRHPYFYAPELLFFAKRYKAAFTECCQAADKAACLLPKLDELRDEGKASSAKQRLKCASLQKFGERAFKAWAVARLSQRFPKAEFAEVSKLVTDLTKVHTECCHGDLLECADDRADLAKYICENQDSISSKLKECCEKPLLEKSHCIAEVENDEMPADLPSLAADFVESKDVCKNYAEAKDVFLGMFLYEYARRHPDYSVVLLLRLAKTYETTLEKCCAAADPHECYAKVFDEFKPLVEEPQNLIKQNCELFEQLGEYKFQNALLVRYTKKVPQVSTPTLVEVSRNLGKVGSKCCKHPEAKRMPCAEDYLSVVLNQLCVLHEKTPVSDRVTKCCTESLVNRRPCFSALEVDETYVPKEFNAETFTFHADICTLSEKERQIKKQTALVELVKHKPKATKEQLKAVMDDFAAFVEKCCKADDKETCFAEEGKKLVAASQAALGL
Experimental: Method: Binding of molecules to serum albumin was characterized by surface plasmon resonance in a Biacore 8K instrument. Serum albumin from different species was covalently bound to CM5 sensor chips surface until 4000 RU was reached. The chip was blocked by 1M ethanolamine with flowrate of 10 μL/min for 420 s. Each molecule sample was diluted and injected at a flow rate of 30 μL/min to allow for binding to chip-bound albumin for 120 s and for dissociation for 300 s. Binding buffer without molecule was sent over the chip at the flow rate of 20 seconds to allow spontaneous dissociation of bound molecule for 30 seconds.

[4] = target: GLP-1 receptor (Homo sapiens, UniProt P43220); details: J. Med. Chem. 2015, 58, 7370-7380; cited from earlier work
Chain of GLP-1 receptor (P43220 24-463, species assumed): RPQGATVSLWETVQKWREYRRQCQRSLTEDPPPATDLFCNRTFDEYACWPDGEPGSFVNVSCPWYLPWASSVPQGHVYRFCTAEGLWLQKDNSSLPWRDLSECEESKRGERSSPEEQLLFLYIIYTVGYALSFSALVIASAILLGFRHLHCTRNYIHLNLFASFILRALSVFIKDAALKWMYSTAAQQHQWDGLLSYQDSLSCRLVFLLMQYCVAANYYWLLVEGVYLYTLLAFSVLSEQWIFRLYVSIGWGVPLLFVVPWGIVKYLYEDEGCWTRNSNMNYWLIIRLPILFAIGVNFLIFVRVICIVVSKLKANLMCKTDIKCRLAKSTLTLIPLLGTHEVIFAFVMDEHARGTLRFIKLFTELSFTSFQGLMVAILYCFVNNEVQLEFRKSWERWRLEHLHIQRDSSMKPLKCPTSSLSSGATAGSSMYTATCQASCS

## Semaglutide [reference compound]
[1]; Study 1 (FIG. 1A)
  AUC ΔBW 0-8 d: −9.3 day*%
[1]; Study 2 (FIG. 1B)
  AUC ΔBW 0-8 d: −13.2 day*%
[2]; 3 nmol/kg s.c. once
  AUCΔBG 0-192 h: -317.0 mmol·h/L
[2]; 10 nmol/kg s.c. once
  AUCΔBG 0-192 h: -583.4 mmol·h/L
[2]; 30 nmol/kg s.c. once
  AUCΔBG 0-192 h: -527.1 mmol·h/L
[3]
  Rmax: 55.2 RU
[4]
  Loss in GLP-1 receptor binding in presence of human serum albumin relative to unconjugated counterpart: 939 fold

Source: US12383623B2, “Liquid pharmaceutical compositions of polypeptide conjugates and methods of uses thereof” (BEIJING QL BIOPHARMACEUTICAL CO., LTD., priority 2022, dated 2025)
